# Assay results published in patent US9067922B2, “Chemical compounds” (Pfizer Limited, priority 2013, dated 2015).
# pIC50: −log10 of the molar value.
# Molecular target: URAT-1 transporter (Homo sapiens (Human), UniProt Q96S37)
# Assay: URAT-1 inhibitor activity: [14C]-uric acid uptake in CHO-URAT1(L)GFP#8 (CHO#8) cells, scintillation proximity
# Type: cell-based
# Settings: inhibition of [14C]-uric acid (30 nM) uptake into CHO#8 cells; compound 0 to 10 μM; 4 parameter logistic fit
# Source text: The nucleotide sequence for the long isoform of URAT1 (NM_144585) was C-terminally fused to that of enhanced green fluorescent protein (eGFP) (hereinafter referred to as URAT1(L)GFP). The combined sequence was codon-optimised and custom synthesized. The synthesized sequence was generated in pDONR221 Gateway entry vector (Invitrogen Life Technologies) prior to cloning in pLenti6.3/V5 Gateway destination vector (Invitrogen Life Technologies).
# Lentiviral particles were generated according to ViraPower HiPerform expression system procedure (Invitrogen Life Technologies) and used to transduce CHO cells. […] The clonal pools were sorted using fluorescence-activated cell sorting (FACS) on the basis of GFP expression with the gating set at the top 50% of expression into single cells which were subsequently expanded to generate clonal lines. […] This cell line was used for all screening activities and is referred to as CHO-URAT1(L)GFP#8 or CHO#8.
# The potency of the compounds of formula (I) as inhibitors of the URAT-1 transporter was determined as follows.
# CHO#8 cells were cultured in cell line maintenance flasks in medium consisting of Dulbecco's modified Eagle medium (DMEM) with high glucose and sodium pyruvate (4.5 g of glucose per liter, Invitrogen Life Technologies), supplemented with heat-inactivated foetal bovine serum (FBC, 10% v/v), 1×NEAA (non-essential amino acids) and blasticidin (10 μg/ml). Cultures were grown in 175 cm^2 tissue culture flasks in a humidified incubator at approximately 37° C. in approximately 95% air/5% CO2. Near confluent CHO#8 cell cultures were harvested by trypsinisation, re-suspended in culture medium and the process was repeated once or twice weekly to provide sufficient cells for use.
# Assay ready flasks were generated by the same method, except the cells were not cultured in blasticidin.
# Assay ready frozen cells were generated by freezing 40,000,000 cells in 1 ml of FBS (without blasticidin) containing 10% DMSO per vial. One vial was sufficient for 5 assay plates. Each vial was thawed rapidly to 37° C., washed and re-suspended in pre-warmed culture medium for seeding onto assay plates.
# CHO#8 cells were seeded onto Cytostar™ 96-well plates at a density of […]. The cells were cultured for 1 day at approximately 37° C. in a humidified incubator containing approximately 5% CO2 in air. After approximately 24 hours culture, cells were used for uptake experiments.
# On the day of assay, culture medium was removed from the wells and the cells were washed once with 50 μL of chloride-containing buffer (136.7 mM NaCl, 5.36 mM KCl, 0.952 mM CaCl2, 0.441 mM KH2PO4, 0.812 mM MgSO4, 5.6 mM D-glucose, 0.383 mM Na2HPO4.2H2O, 10 mM HEPES, pH 7.4 with NaOH). The cells were pre-incubated with another 50 μL of chloride-containing buffer for one hour at approximately 37° C. in a humidified incubator containing approximately 5% CO2 in air.
# Assay compound plates were prepared by diluting the compounds of formula (I) with chloride-free buffer (125 mM Na-gluconate, 4.8 mM K-gluconate, 1.3 mM Ca-gluconate, 1.2 mM KH2PO4, 1.2 mM MgSO4, 5.6 mM D-glucose, 25 mM HEPES, pH 7.4 with NaOH) in 100% DMSO to a final concentration of 1% DMSO. [^14C]-Uric Uric acid working stock was made by addition of radiolabeled compound to a final concentration of 120 nM in chloride-free buffer. In all wells, the final assay concentration of solvent (DMSO) was 0.25%; the final assay concentration of [^14C]-uric acid was 30 nM in chloride-free buffer and the final compound of formula (I) concentrations ranged from 0 to 10 μM.
# After pre-incubation, cells were washed with 50 μL of chloride-free buffer and another 50 μL of chloride-free buffer was added.
# Chain of URAT-1 transporter (Q96S37 other isoform, or with tags, fused parts or gaps): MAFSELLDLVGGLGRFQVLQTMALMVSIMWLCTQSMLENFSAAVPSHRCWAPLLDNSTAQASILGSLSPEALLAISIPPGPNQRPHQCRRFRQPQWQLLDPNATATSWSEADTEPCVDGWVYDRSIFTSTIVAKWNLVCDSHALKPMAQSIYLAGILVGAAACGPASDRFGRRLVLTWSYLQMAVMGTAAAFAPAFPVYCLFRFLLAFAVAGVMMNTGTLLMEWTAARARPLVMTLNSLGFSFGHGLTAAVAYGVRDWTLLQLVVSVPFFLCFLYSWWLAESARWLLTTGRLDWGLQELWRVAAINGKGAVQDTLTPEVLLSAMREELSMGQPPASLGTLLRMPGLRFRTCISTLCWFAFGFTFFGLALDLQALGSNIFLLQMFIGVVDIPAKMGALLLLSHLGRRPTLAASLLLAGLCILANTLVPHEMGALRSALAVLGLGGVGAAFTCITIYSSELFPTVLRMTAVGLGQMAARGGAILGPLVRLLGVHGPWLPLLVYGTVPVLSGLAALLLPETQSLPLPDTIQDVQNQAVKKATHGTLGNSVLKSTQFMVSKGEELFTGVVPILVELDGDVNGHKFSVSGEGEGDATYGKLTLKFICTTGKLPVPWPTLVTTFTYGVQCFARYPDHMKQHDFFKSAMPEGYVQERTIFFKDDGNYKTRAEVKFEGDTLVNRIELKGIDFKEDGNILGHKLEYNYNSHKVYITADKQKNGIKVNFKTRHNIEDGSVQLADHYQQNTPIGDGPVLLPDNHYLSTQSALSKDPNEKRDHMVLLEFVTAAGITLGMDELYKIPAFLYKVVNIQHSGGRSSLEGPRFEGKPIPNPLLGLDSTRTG
row,SMILES,pIC50
1,"N#Cc1ccc(Oc2ccc(S(=O)(=O)Nc3ccncc3)cc2C#N)cc1Cl [Example 100, 4-(3-chloro-4-cyanophenoxy)-3-cyano-N-(pyridin-4-yl)benzenesulfonamide]",< 5.00
2,"N#Cc1ccc(Oc2ccc(S(=O)(=O)Nc3cccnc3)cc2C#N)cc1Cl [Example 92, 4-(3-chloro-4-cyanophenoxy)-3-cyano-N-(pyridin-3-yl)benzenesulfonamide]",6.38
3,"CC(C)c1ncc(Oc2ccc(S(=O)(=O)Nc3ccc(F)cn3)cc2C#N)cc1Cl [Example 117, 4-{[5-chloro-6-(propan-2-yl)pyridin-3-yl]oxy}-3-cyano-N-(5-fluoropyridin-2-yl)benzenesulfonamide]",< 5.00
4,"Cc1cc(Cl)c(Oc2ccc(S(=O)(=O)Nc3ccc(F)cn3)cc2C#N)cc1C [Example 136, 4-(2-chloro-4,5-dimethylphenoxy)-3-cyano-N-(5-fluoropyridin-2-yl)benzenesulfonamide]",< 5.00
5,"N#Cc1cc(S(=O)(=O)Nc2ccc(F)cn2)ccc1Oc1ccc(C(F)(F)F)nc1 [Example 196, 3-cyano-N-(5-fluoropyridin-2-yl)-4-{[6-(trifluoromethyl)pyridin-3-yl]oxy}benzenesulfonamide]",< 5.00
6,"COc1ccc(F)cc1Oc1ccc(S(=O)(=O)Nc2ccc(F)cn2)cc1C#N [Example 120, 3-cyano-4-(5-fluoro-2-methoxyphenoxy)-N-(5-fluoropyridin-2-yl)benzenesulfonamide]",< 5.00
7,"CCOc1ncccc1Oc1ccc(S(=O)(=O)Nc2ccc(F)cn2)cc1C#N [Example 154, 3-cyano-4-[(2-ethoxypyridin-3-yl)oxy]-N-(5-fluoropyridin-2-yl)benzenesulfonamide]",< 5.00
8,"Cc1ccnc(NS(=O)(=O)c2ccc(Oc3cccc(Cl)c3C#N)cc2)c1 [Example 216, 4-(3-chloro-2-cyanophenoxy)-N-(4-methylpyridin-2-yl)benzenesulfonamide]",< 5.00
9,"Cc1ccccc1Oc1ccc(S(=O)(=O)Nc2ccc(F)cn2)cc1C#N [Example 186, 3-cyano-N-(5-fluoropyridin-2-yl)-4-(2-methylphenoxy)benzenesulfonamide]",6.49
10,"Cc1c(F)ccc(Oc2ccc(S(=O)(=O)Nc3ccc(F)cn3)cc2C#N)c1C [Example 172, 3-cyano-4-(4-fluoro-2,3-dimethylphenoxy)-N-(5-fluoropyridin-2-yl)benzenesulfonamide]",6.30
11,"CCOc1cc(C)ccc1Oc1ccc(S(=O)(=O)Nc2ccc(F)cn2)cc1C#N [Example 138, 3-cyano-4-(2-ethoxy-4-methylphenoxy)-N-(5-fluoropyridin-2-yl)benzenesulfonamide]",5.04
12,N#Cc1cc(Oc2cc(F)c(S(=O)(=O)Nc3ncc(F)cn3)cc2Cl)ccc1F [compound 214],< 5.94
13,"N#Cc1ccc(Oc2ccc(S(=O)(=O)Nc3cccnn3)cc2C#N)cc1Cl [Example 98, 4-(3-chloro-4-cyanophenoxy)-3-cyano-N-(pyridazin-3-yl)benzenesulfonamide]",5.41
14,"Cc1cc(Oc2ccc(S(=O)(=O)Nc3ccc(F)cn3)cc2C#N)c(Cl)cc1Cl [Example 109, 3-cyano-4-(2,4-dichloro-5-methylphenoxy)-N-(5-fluoropyridin-2-yl)benzenesulfonamide]",6.05
15,"N#Cc1cc(S(=O)(=O)Nc2ccc(F)cn2)ccc1Oc1cc(F)ccc1F [Example 53, 3-cyano-4-(2,5-difluorophenoxy)-N-(5-fluoropyridin-2-yl)benzenesulfonamide]",6.72
16,"COc1ccc(Cl)cc1Oc1ccc(S(=O)(=O)Nc2ccc(F)cn2)cc1C#N [Example 106, 4-(5-chloro-2-methoxyphenoxy)-3-cyano-N-(5-fluoropyridin-2-yl)benzenesulfonamide]",< 5.00
17,"N#Cc1ccc(Oc2ccc(S(=O)(=O)Nc3ccc(F)cn3)cc2C#N)c(Cl)c1 [Example 30, 4-(2-chloro-4-cyanophenoxy)-3-cyano-N-(5-fluoropyridin-2-yl)benzenesulfonamide]",6.74
18,"N#Cc1cc(S(=O)(=O)Nc2ccc(F)cn2)ccc1Oc1cc(F)cc(C(F)(F)F)c1 [Example 40, 3-cyano-N-(5-fluoropyridin-2-yl)-4-[3-fluoro-5-(trifluoromethyl)phenoxy]benzenesulfonamide]",6.01
19,"Cc1cc(Oc2ccc(S(=O)(=O)Nc3ccc(F)cn3)cc2C#N)ccc1C(C)C [Example 139, 3-cyano-N-(5-fluoropyridin-2-yl)-4-[3-methyl-4-(propan-2-yl)phenoxy]benzenesulfonamide]",< 5.00

# Stronger by pIC50, values ahead:
row,pIC50,SMILES
1,7.24,"N#Cc1cc(S(=O)(=O)Nc2ccc(F)cn2)ccc1Oc1cc(Cl)c(F)cc1Cl [Example 107, 3-cyano-4-(2,5-dichloro-4-fluorophenoxy)-N-(5-fluoropyridin-2-yl)benzenesulfonamide]"
2,7.00,"N#Cc1cc(S(=O)(=O)Nc2ccc(F)cn2)ccc1Oc1ccc(Cl)c(Cl)c1 [Example 122, 3-cyano-4-(3,4-dichlorophenoxy)-N-(5-fluoropyridin-2-yl)benzenesulfonamide]"
3,6.79,"N#Cc1cc(S(=O)(=O)Nc2ccc(F)cn2)ccc1Oc1ccccc1F [Example 41, 3-cyano-4-(2-fluorophenoxy)-N-(5-fluoropyridin-2-yl)benzenesulfonamide]"
4,7.19,"N#Cc1cc(S(=O)(=O)Nc2ccc(F)cn2)ccc1Oc1ccc(F)cc1F [Example 7, 3-cyano-4-(2,4-difluorophenoxy)-N-(5-fluoropyridin-2-yl)benzenesulfonamide]"
5,7.24,"COc1cc(Oc2ccc(S(=O)(=O)Nc3ccc(F)cn3)cc2C#N)ccc1C#N [Example 76, 3-cyano-4-(4-cyano-3-methoxyphenoxy)-N-(5-fluoropyridin-2-yl)benzenesulfonamide]"
6,7.16,"COc1cccc(Cl)c1Oc1ccc(S(=O)(=O)Nc2ccc(F)cn2)cc1C#N [Example 114, 4-(2-chloro-6-methoxyphenoxy)-3-cyano-N-(5-fluoropyridin-2-yl)benzenesulfonamide]"
7,7.28,"COc1ccc(C)c(Oc2ccc(S(=O)(=O)Nc3ccc(F)cn3)cc2C#N)c1 [Example 200, 3-cyano-N-(5-fluoropyridin-2-yl)-4-(5-methoxy-2-methylphenoxy)benzenesulfonamide]"
8,6.84,"N#Cc1ccc(Oc2ccc(S(=O)(=O)Nc3ncccc3F)cc2C#N)cc1Cl [Example 103, 4-(3-chloro-4-cyanophenoxy)-3-cyano-N-(3-fluoropyridin-2-yl)benzenesulfonamide]"
9,6.92,"N#Cc1cc(S(=O)(=O)Nc2ccc(F)cn2)ccc1Oc1cc(F)c(F)cc1F [Example 130, 3-cyano-N-(5-fluoropyridin-2-yl)-4-(2,4,5-trifluorophenoxy)benzenesulfonamide]"
10,6.87,"COc1ccc(Oc2ccc(S(=O)(=O)Nc3ccc(F)cn3)cc2C#N)cc1C#N [Example 66, 3-cyano-4-(3-cyano-4-methoxyphenoxy)-N-(5-fluoropyridin-2-yl)benzenesulfonamide]"
11,7.11,"N#Cc1cc(S(=O)(=O)Nc2ccc(F)cn2)ccc1Oc1ccc(F)cc1Cl [Example 31, 4-(2-chloro-4-fluorophenoxy)-3-cyano-N-(5-fluoropyridin-2-yl)benzenesulfonamide]"
12,6.76,"COc1cc(C)cc(Oc2ccc(S(=O)(=O)Nc3ccc(F)cn3)cc2C#N)c1 [Example 182, 3-cyano-N-(5-fluoropyridin-2-yl)-4-(3-methoxy-5-methylphenoxy)benzenesulfonamide]"
13,7.29,"N#Cc1cc(S(=O)(=O)Nc2ccc(F)cn2)ccc1Oc1ccc(F)c(F)c1F [Example 157, 3-cyano-N-(5-fluoropyridin-2-yl)-4-(2,3,4-trifluorophenoxy)benzenesulfonamide]"
